Source: PMC8508710, “Biochemical Characterization of 13-Lipoxygenases of Arabidopsis thaliana” (International Journal of Molecular Sciences, 2021)
Read-outs that look alike come from different tables or passages of the source.

Key:
LOX4 = biological target: T1, LOX4 (Arabidopsis thaliana, UniProt Q9FNX8); test: LOX4 activity, spectrophotometric (conjugated diene formation at 234 nm); details: for Photometry Relative activity (%) LOX4: enzyme 0.225 µg/µL incubated 10 min 30 °C with 280 µM chemical, 4.8 µM LeA, 50 mM Tris-HCl pH 7.2, vs solvent control; for Relative Activity (%) LOX4: E. coli lysate in 50 mM TRIS pH 8.0 diluted 1:10, 50 mM HEPES pH 8.0 + 1 mM metal salt, LeA, 234 nm
T1 sequence (Q9FNX8 71-926): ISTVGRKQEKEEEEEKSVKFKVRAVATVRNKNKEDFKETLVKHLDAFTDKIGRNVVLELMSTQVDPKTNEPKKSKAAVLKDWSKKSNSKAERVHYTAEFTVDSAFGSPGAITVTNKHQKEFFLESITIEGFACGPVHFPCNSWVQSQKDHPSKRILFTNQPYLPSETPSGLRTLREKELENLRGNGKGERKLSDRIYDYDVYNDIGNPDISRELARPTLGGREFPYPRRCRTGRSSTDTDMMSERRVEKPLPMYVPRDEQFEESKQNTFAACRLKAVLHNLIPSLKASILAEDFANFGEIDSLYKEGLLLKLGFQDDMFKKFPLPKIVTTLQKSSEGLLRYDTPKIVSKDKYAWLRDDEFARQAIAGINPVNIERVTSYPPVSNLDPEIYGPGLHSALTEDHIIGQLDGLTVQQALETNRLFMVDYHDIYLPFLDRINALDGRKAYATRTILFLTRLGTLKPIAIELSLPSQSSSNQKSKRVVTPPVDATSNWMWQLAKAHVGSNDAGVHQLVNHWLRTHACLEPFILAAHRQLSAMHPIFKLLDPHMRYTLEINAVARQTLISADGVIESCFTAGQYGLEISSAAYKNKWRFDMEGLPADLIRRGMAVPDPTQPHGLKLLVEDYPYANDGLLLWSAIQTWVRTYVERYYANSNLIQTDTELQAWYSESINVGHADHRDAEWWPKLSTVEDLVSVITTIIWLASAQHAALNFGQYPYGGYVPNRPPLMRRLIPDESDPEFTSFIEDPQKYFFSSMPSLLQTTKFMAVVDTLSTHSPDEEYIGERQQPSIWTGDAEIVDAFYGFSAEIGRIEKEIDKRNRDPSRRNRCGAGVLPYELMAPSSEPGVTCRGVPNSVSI

LOX2 = biological target: T2, LOX2 (Arabidopsis thaliana, UniProt P38418); test: LOX2 activity, oxygen electrode (polarography); assay type: biochemical; set-up: made in house; host or cells: E. coli Nico21(DE3), pET15b; details: for activity at 280 µM: enzyme incubated with 280 µM chemical (1/10 vol of 2.8 mM), injected into 30 µM LeA, 50 mM Tris-HCl pH 7.2, vs solvent control, read-out: Polarography Relative Activity (%) LOX2; for Increase of LOX2 activity in comparison to control: 1 mM cation, LeA 30 µM, pH 8.0; for Relative Activity (%) LOX2: 1 mM metal salt, LeA 30 µM in 20 mM HEPES pH 8.0, oxygen consumption vs control without metal
T2 sequence (P38418 71-896): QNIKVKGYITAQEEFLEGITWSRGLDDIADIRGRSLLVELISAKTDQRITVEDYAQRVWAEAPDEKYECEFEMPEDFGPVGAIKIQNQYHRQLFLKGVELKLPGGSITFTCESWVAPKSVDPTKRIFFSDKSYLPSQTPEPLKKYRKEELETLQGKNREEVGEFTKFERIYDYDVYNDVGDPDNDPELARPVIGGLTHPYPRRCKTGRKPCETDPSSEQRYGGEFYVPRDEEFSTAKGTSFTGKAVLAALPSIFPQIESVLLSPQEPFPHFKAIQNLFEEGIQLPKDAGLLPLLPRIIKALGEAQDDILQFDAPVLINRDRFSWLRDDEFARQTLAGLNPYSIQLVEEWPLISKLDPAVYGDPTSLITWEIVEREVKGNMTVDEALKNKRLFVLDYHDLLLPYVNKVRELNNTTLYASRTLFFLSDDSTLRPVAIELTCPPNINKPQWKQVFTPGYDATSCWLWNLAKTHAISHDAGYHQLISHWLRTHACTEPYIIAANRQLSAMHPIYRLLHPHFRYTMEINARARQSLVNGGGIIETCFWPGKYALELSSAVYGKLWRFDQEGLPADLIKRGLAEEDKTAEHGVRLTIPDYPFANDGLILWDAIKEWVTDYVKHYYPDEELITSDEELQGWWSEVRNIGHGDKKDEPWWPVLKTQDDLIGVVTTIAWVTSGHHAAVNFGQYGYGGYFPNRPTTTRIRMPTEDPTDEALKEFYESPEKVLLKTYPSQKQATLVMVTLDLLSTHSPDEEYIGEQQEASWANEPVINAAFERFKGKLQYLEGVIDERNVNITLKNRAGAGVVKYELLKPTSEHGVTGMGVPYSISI

LOX3 = biological target: T3, LOX3 (Arabidopsis thaliana, UniProt Q9LNR3); test: LOX3 activity, oxygen electrode (polarography); assay type: biochemical; set-up: made in house; host or cells: E. coli Nico21(DE3), pET15b; details: enzyme incubated with 280 µM chemical (1/10 vol of 2.8 mM), injected into 30 µM LeA, 50 mM Tris-HCl pH 7.2; vs solvent control; read-out: Polarography Relative Activity (%) LOX3
T3 sequence (Q9LNR3 71-919): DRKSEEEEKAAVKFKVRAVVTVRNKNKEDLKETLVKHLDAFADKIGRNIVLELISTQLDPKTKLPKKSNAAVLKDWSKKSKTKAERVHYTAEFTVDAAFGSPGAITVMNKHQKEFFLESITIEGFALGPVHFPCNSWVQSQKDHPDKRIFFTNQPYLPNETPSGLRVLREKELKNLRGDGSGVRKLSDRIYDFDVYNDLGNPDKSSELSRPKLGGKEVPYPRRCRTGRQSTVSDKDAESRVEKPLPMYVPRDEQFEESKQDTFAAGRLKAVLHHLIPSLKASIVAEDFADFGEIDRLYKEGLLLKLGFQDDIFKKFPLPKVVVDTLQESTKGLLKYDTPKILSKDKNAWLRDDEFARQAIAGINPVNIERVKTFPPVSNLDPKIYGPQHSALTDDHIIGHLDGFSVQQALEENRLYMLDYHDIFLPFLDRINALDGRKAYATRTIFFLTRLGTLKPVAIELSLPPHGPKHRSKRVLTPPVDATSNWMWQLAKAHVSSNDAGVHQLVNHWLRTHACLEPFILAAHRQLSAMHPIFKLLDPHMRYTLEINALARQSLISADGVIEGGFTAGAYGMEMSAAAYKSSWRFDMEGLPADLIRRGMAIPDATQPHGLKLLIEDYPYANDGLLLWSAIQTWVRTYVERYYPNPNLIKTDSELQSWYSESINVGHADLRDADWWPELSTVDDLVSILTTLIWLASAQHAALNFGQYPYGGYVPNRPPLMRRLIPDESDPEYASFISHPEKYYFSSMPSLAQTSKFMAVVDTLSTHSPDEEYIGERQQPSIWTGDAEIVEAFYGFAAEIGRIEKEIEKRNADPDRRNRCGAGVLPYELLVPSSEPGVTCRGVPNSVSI

AOC = tested on: AOC; set-up: method as in PMID 12223729; details: cited from earlier work

Relative Activity (%) LOX4 (LOX4) [%] | Relative Activity (%) LOX2 (LOX2) [%] | Compound | activity at 280 µM (LOX2) [%] | activity at 280 µM (LOX3) [%] | further results
– | – | CCC=CCC1C(=O)C=CC1CCCCCCCC(=O)O (stereo not drawn) [12-OPDA, cis-(+)-12-oxophytodienoic acid] | 64 ± 4 | 60 ± 5 | IC50 (LOX4): 48 µM; Ki (LOX4): 10 µM; Mode of inhibition (LOX4; Lineweaver–Burk and Dixon plots): non-competitive or mixed; Photometry Relative activity (%) LOX4 (LOX4): 6 ± 4%; Sensitivity of AOC (AOC; 0.5 mM): insensitivity
85±6 | 690 ± 60 | [Ca+2].[Cl-].[Cl-] [CaCl2] | – | – | Increase of LOX2 activity in comparison to control (LOX2): 590%; Sensitivity of AOC (AOC; 1.0 mM): insensitivity
– | – | CC/C=C\CC1C(=O)CCC1CC(=O)OC (stereo not drawn) [MJ, methyl jasmonate] | 87 ± 10 | 85 ± 5 | –
107±2 | 170 ± 18 | [Cl-].[Cl-].[Mg+2] [MgCl2] | – | – | Increase of LOX2 activity in comparison to control (LOX2): 70%; Sensitivity of AOC (AOC; 1.0 mM): insensitivity
– | – | O=C(O)c1ccccc1O [SA, salicylic acid] | 96 ± 7 | 101 ± 5 | –
– | – | O=C(O)/C=C/CCCCCCCCC(=O)O [TA, traumatic acid] | 95 ± 8 | 100 ± 5 | Photometry Relative activity (%) LOX4 (LOX4): 106 ± 4%

Compound | Relative Activity (%) LOX4 (LOX4) [%] | Relative Activity (%) LOX2 (LOX2) [%] | activity at 280 µM (LOX2) [%] | activity at 280 µM (LOX3) [%] | further results
O=S(=O)([O-])[O-].[Cd+2] [CdSO4] | 40±6 | 220 ± 18 | – | – | –
